Measurements as given in ChEMBL document CHEMBL4699662, “Identification and structure-activity relationship studies of small molecule inhibitors of the human cathepsin D” (Bioorg Med Chem, 2021).

Key:
in vitro [1] = settings: mouse, liver microsomes
in vitro [2] = settings: human, liver microsomes

microsomal CLint at 0.5 h, 1 µM (in vitro [1]) [µL/min/mg] | microsomal CLint at 0.5 h, 1 µM (in vitro [2]) [µL/min/mg] | Structure (SMILES)
15.5 | 22.5 | COc1ccc(CC(=O)NC(=N)N[C@H](CO)C(=O)Nc2cc(S(N)(=O)=O)ccc2C)cc1OC
177 | 177 | CNS(=O)(=O)c1ccc(C)c(NC(=O)[C@@H](CC2CCCCC2)NC(=N)NC(=O)Cc2ccc(OC)c(OC)c2)c1
118 | 55.1 | CC[C@@H](NC(=N)NC(=O)Cc1ccc(OC)c(OC)c1)C(=O)Nc1cc(S(N)(=O)=O)ccc1C
193 | 191 | COc1ccc(CC(=O)NC(=N)N[C@H](Cc2ccccc2)C(=O)Nc2cc(S(N)(=O)=O)ccc2C)cc1OC
179 | 174 | COc1ccc(CC(=O)NC(=N)N[C@H](C(=O)Nc2cc(S(N)(=O)=O)ccc2C)C2CCCC2)cc1OC
178 | 138 | COc1ccc(CC(=O)NC(=N)N[C@@H](C(=O)Nc2cc(S(N)(=O)=O)ccc2C)C2=CCC=CC2)cc1OC
100 | 40 | COc1ccc(CC(=O)NC(=N)N[C@@H](C(=O)Nc2cc(S(N)(=O)=O)ccc2C)C2CC2)cc1OC
240 | 277 | COc1ccc(CC(=O)NC(=N)N[C@H](CC2CCCCC2)C(=O)Nc2cc(S(=O)(=O)NC(C)C)ccc2C)cc1OC
297 | 262 | COc1ccc(CC(=O)NC(=N)N[C@H](CCSC)C(=O)Nc2cc(S(N)(=O)=O)ccc2C)cc1OC
50.6 | 27.8 | COc1ccc(CC(=O)NC(=N)N[C@H](C)C(=O)Nc2cc(S(N)(=O)=O)ccc2C)cc1OC
49.1 | 31.8 | COc1ccc(CC(=O)NC(=N)N[C@H](CN2CCOCC2)C(=O)Nc2cc(S(N)(=O)=O)ccc2C)cc1OC
197 | 187 | COc1ccc(CC(=O)NC(=N)N[C@H](CSC)C(=O)Nc2cc(S(N)(=O)=O)ccc2C)cc1OC
57.3 | 43.1 | COCC[C@@H](NC(=N)NC(=O)Cc1ccc(OC)c(OC)c1)C(=O)Nc1cc(S(N)(=O)=O)ccc1C
354 | 179 | COc1ccc(CC(=O)NC(=N)N[C@H](CC2CCCCC2)C(=O)Nc2cc(S(=O)(=O)NC3CC3)ccc2C)cc1OC
180 | 176 | CNS(=O)(=O)c1ccc(C)c(NC(=O)[C@H](CC2CCCCC2)NC(=N)NC(=O)Cc2ccc(OC)c(OC)c2)c1
266 | 89.3 | CCC[C@@H](NC(=N)NC(=O)Cc1ccc(OC)c(OC)c1)C(=O)Nc1cc(S(N)(=O)=O)ccc1C
211 | 108 | COc1ccc(CC(=O)NC(=N)N[C@@H](C(=O)Nc2cc(S(N)(=O)=O)ccc2C)C(C)(C)C)cc1OC
229 | 108 | COc1ccc(CC(=O)NC(=N)N[C@H](CC2CC2)C(=O)Nc2cc(S(N)(=O)=O)ccc2C)cc1OC
47.2 | 26.9 | COC[C@@H](NC(=N)NC(=O)Cc1ccc(OC)c(OC)c1)C(=O)Nc1cc(S(N)(=O)=O)ccc1C
86.8 | 59.1 | CCOC[C@@H](NC(=N)NC(=O)Cc1ccc(OC)c(OC)c1)C(=O)Nc1cc(S(N)(=O)=O)ccc1C
20 | 18 | COc1ccc(CC(=O)NC(=N)NCC(=O)Nc2cc(S(N)(=O)=O)ccc2C)cc1OC
149 | 171 | COc1ccc(CC(=O)NC(=N)N[C@H](Cc2ccccc2F)C(=O)Nc2cc(S(N)(=O)=O)ccc2C)cc1OC
210 | 225 | COc1ccc(CC(=O)NC(=N)N[C@@H](C(=O)Nc2cc(S(N)(=O)=O)ccc2C)C2CCCCC2)cc1OC
226 | 204 | COc1ccc(CC(=O)NC(=N)N[C@H](CC2CCCCC2)C(=O)Nc2cc(S(=O)(=O)N(C)C)ccc2C)cc1OC
102 | 160 | COc1ccc(CC(=O)NC(=N)N[C@H](CC(C)C)C(=O)Nc2cc(S(N)(=O)=O)ccc2C)cc1OC
260 | 264 | COc1ccc(CC(=O)NC(=N)N[C@H](Cc2cccs2)C(=O)Nc2cc(S(N)(=O)=O)ccc2C)cc1OC
161 | 171 | COc1ccc(CC(=O)NC(=N)N[C@H](CC2CCCCC2)C(=O)Nc2cc(S(N)(=O)=O)ccc2C)cc1OC

More lines, now with the values behind:

Structure (SMILES) | microsomal CLint at 0.5 h, 1 µM (in vitro [1]) [µL/min/mg] | microsomal CLint at 0.5 h, 1 µM (in vitro [2]) [µL/min/mg]
Cc1ccc(S(=O)(=O)N(C)C)cc1NC(=O)[C@@H](CC1CCCCC1)NC(=N)NC(=O)Cc1cc(C(F)(F)F)cc(C(F)(F)F)c1 | 258 | 246
COc1ccc(CC(=O)NC(=N)N[C@H](CC2CCCCC2)C(=O)Nc2cc(S(=O)(=O)N(C)C)ccc2C)cc1F | 241 | 241
CNS(=O)(=O)c1ccc(C)c(NC(=O)[C@@H](CC2CCCCC2)NC(=N)NC(=O)Cc2ccc(OC)c(Cl)c2)c1 | 273 | 295
Cc1ccc(S(=O)(=O)N(C)C)cc1NC(=O)[C@@H](CC1CCCCC1)NC(=N)NC(=O)C1CCCc2ccccc21 (some centres undefined) | 259 | 237
COc1ccc(CC(=O)NC(=N)N[C@H](CC2CCCCC2)C(=O)Nc2cc(S(=O)(=O)NC3CCCCC3)ccc2C)cc1OC | 232 | 326
CNS(=O)(=O)c1ccc(C)c(NC(=O)[C@H](NC(=N)NC(=O)Cc2ccc(OC)c(OC)c2)C(C)C)c1 | 104 | 179
CNS(=O)(=O)c1ccc(C)c(NC(=O)[C@H](NC(=N)NC(=O)Cc2ccc(OC)c(OC)c2)C2CCCCC2)c1 | 173 | 211
Cc1ccc(S(=O)(=O)N(C)C)cc1NC(=O)[C@@H](CC1CCCCC1)NC(=N)NC(=O)Cc1ccc(C(F)(F)F)cc1 | 282 | 291
Cc1ccc(S(=O)(=O)N(C)C)cc1NC(=O)[C@@H](CC1CCCCC1)NC(=N)NC(=O)Cc1cccc(C(F)(F)F)c1 | 270 | 238
Cc1ccc(S(=O)(=O)N(C)C)cc1NC(=O)[C@@H](CC1CCCCC1)NC(=N)NC(=O)c1ccc2c(c1)OCCO2 | 272 | 253
CNS(=O)(=O)c1ccc(C)c(NC(=O)[C@@H](CC2CCCCC2)NC(=N)NC(=O)Cc2ccc(F)c(OC)c2)c1 | 326 | 287
Cc1ccc(S(=O)(=O)N(C)C)cc1NC(=O)[C@@H](CC1CCCCC1)NC(=N)NC(=O)Cc1ccc(F)c(F)c1 | 264 | 163
Cc1ccc(S(=O)(=O)N(C)C)cc1NC(=O)[C@@H](CC1CCCCC1)NC(=N)NC(=O)Cc1ccccc1C(F)(F)F | 244 | 208
COc1ccc(CC(=O)NC(=N)N[C@H](CC2CCCCC2)C(=O)Nc2cc(S(=O)(=O)N3CCN(C)CC3)ccc2C)cc1OC | 212 | 271
CNS(=O)(=O)c1ccc(C)c(NC(=O)[C@@H](CC2CCCCC2)NC(=N)NC(=O)Cc2ccc(Cl)c(Cl)c2)c1 | 176 | 336
COc1ccc(CC(=O)NC(=N)N[C@H](CC2CCCCC2)C(=O)Nc2cc(N(S(C)(=O)=O)S(C)(=O)=O)ccc2C)cc1OC | 165 | 186
CNS(=O)(=O)c1ccc(C)c(NC(=O)[C@H](NC(=N)NC(=O)Cc2ccc(OC)c(OC)c2)c2ccccc2)c1 | 270 | 281
COc1ccc(CC(=O)NC(=N)N[C@H](CC2CCCCC2)C(=O)Nc2cc(S(=O)(=O)N3CCOCC3)ccc2C)cc1OC | 237 | 212
COc1ccc(CC(=O)NC(=N)N[C@H](Cc2cc3ccccc3s2)C(=O)Nc2cc(S(N)(=O)=O)ccc2C)cc1OC | 239 | 251
CNS(=O)(=O)c1ccc(C)c(NC(=O)[C@@H](Cc2ccccc2)NC(=N)NC(=O)Cc2ccc(OC)c(OC)c2)c1 | 149 | 131
COc1ccc(CC(=O)NC(=N)N[C@H](Cn2cc(-c3ccccc3)nn2)C(=O)Nc2cc(S(N)(=O)=O)ccc2C)cc1OC | 367 | 340
NC(=O)N1c2ccccc2C=Cc2ccccc21 [CARBAMAZEPINE] | 7 | 6
CNS(=O)(=O)c1ccc(C)c(NC(=O)[C@@H](C)NC(=N)NC(=O)Cc2ccc(OC)c(OC)c2)c1 | 220 | 134
COc1ccc(CC(=O)NC(=N)N[C@H](CC2CCCCC2)C(=O)Nc2cc(S(=O)(=O)N(C(C)C)C(C)C)ccc2C)cc1OC | 259 | 259
CNS(=O)(=O)c1ccc(C)c(NC(=O)[C@@H](CC2CCCCC2)NC(=N)NC(=O)Cc2cc(Cl)cc(C(F)(F)F)c2)c1 | 220 | 239
Cc1ccc(S(=O)(=O)N(C)C)cc1NC(=O)[C@@H](CC1CCCCC1)NC(=N)NC(=O)Cc1cccc(C#N)c1 | 250 | 287
COc1ccc(CCC(=O)NC(=N)N[C@H](CC2CCCCC2)C(=O)Nc2cc(S(=O)(=O)N(C)C)ccc2C)cc1OC | 234 | 169
Cc1ccc(S(=O)(=O)N(C)C)cc1NC(=O)[C@@H](CC1CCCCC1)NC(=N)NC(=O)Cc1ccc(Cl)c(Cl)c1 | 238 | 248
CNS(=O)(=O)c1ccc(C)c(NC(=O)[C@@H](CC2CCCCC2)NC(=N)NC(=O)Cc2cc(C(F)(F)F)cc(C(F)(F)F)c2)c1 | 187 | 175
CNS(=O)(=O)c1ccc(C)c(NC(=O)[C@@H](CC2CCCCC2)NC(=N)NC(=O)Cc2ccc(S(C)(=O)=O)cc2)c1 | 208 | 241
